Data on three compounds can be found in patent publication US9192569B2, “Formulations for infusion of type B lantibiotics” (Novacta Biosystems Limited, priority 2010, dated 2015).

Series [1] is described as follows: In vivo plasma half-life in mice. The following applies: mouse, IV, 9.3 mL/Kg of 3.2 mg/mL solution of Example 1, LC-MS. The method, then: In vivo Plasma Half-life of Compounds of the Present Invention in Mice.
The in vivo half-life of Compound 1 in mice was determined by measurement of its plasma concentrations at various time points following IV dosing. 18 male CD-1 mice aged 7-9 weeks were dosed IV with a 9.3 mL/Kg dose of a 3.2 mg/mL solution of Example 1 in 15% hydroxyl-propyl-beta-cyclodextrin/4.4% glucose/1 mM potassium phosphate (pH=7.6). Plasma samples were obtained at 10, 20, 30, 60, 120 and 240 min post-dose, sampling from 3 animals at each time point. Concentrations of Compound 1 in plasma were determined by LC-MS quantification.

Series [2] relates to Methicillin Resistant Staphylococcus aureus (MRSA, ATCC 33591). Briefly: Neutropaenic mouse thigh infection model. The series is classed as in vivo, mice. Particulars: for antimicrobial effect: 5, 10, 20, 30 and 40 mg/Kg x2 IV. The method, then: Efficacy of Compounds in a Neutropaenic Mouse Thigh Infection Model.
In vivo efficacy of compounds of the present invention in the treatment of bacterial tissue infections was evaluated using a neutropaenic mouse thigh model.
Groups of 6 male ICR mice weighing 24±2 g were used. Test animals were immuno-suppressed by 2 intraperitoneal injections of cyclophosphamide, the first at 150 mg/Kg 4 days before infection (day-4) and the second at 100 mg/Kg 1 day before infection (day−1). On day 0, individual animals were inoculated intramuscularly (IM) into the right thigh of test animals with 1.15×10^5 CFU/mouse of Methicillin Resistant Staphylococcus aureus (MRSA, ATCC 33591) suspended in 100 μL of sterile PBS, pH 7.4. Vehicle and test substances were administered intravenously (IV) at a dose volume of 6 mL/Kg, 2 and 14 hours after thigh infection. Example 1 and vancomycin were dissolved in 15% hydroxypropyl-beta-cyclodextrin/4.4% glucose/1.5 mM potassium phosphate buffer, pH 7.0 and administered at doses of 5, 10, 20, 30 and 40 mg/Kg. At 26 hours after inoculation, muscle of the right thigh of each test mouse was harvested. From an additional group with no treatment, muscle of the right thigh was harvested at 2 hours after inoculation for the basal CFU determination. The removed muscle tissues were then homogenized in 3-4 mL of PBS, pH 7.4 with a ceramic mortar. Homogenates of 0.1 mL were used for serial 10-fold dilutions and plated on Mueller Hinton broth in 1.5% Bacto agar for CFU determination.

Series [3] deals with Staphylococcus aureus methicillin resistant ATCC 33591. The series can be described thus: Mouse bacteraemia model, SC dosing. The series is classed as in vivo, mice. The method, then:
In Vivo Efficacy of Compounds in a Mouse Bacteraemia Model
Groups of 6 male CD-1 (Crl.) derived mice weighing 24±2 g were used. Mice were inoculated intraperitoneally (IP) with an LD90-100 of Staphylococcus aureus methicillin resistant ATCC 33591 (1.1×10^7CFU/mouse) in 0.5 mL of BHI broth containing 5% mucin. Example 1 and vancomycin were dissolved in 15% HPbetaCD/4.4% glucose/0.5 mM KH2PO4, pH 5.0 and doses of 1, 3, 5, 10 and 20 mg/Kg were administered subcutaneously (SC) to test animals at 0, 2 and 24 hour(s) after bacteria challenge. The dosing volume was 5 mL/Kg. Mortality was recorded once daily for 7 days. The ED50 for each compound was determined by nonlinear regression.

Series [4] has as its system Methicillin Resistant Staphylococcus aureus (MRSA, ATCC 33591). Briefly: Neutropaenic mouse thigh infection model, further experiment. The following applies: IV 2 and 14 h after infection; 2.5-50 mg/Kg; thigh at 26 h. The class given is in vivo, mice. The method, then:
In a further experiment groups of 6 male ICR mice weighing 24±2 g were used. Test animals were immunosuppressed by 2 intraperitoneal injections of cyclophosphamide, the first at 150 mg/Kg 4 days before infection (day-4) and the second at 100 mg/Kg 1 day before infection (day-1). On day 0, individual animals were inoculated intramuscularly (IM) into the right thigh of test animals with 1.5×10^5 CFU/mouse of Methicillin Resistant Staphylococcus aureus (MRSA, ATCC 33591) suspended in 100 μL of sterile PBS, pH 7.4. Vehicle and test substances were administered intravenously (IV) at a dose volume of 8 mL/Kg, 2 and 14 hours after thigh infection. Example 1 was dissolved in 5% dextrose/1 mM potassium phosphate, pH 5.0 and administered at doses of 2.5, 5, 10, 15, 25 and 50 mg/Kg. At 26 hours after inoculation, muscle of the right thigh of each test mouse was harvested. From an additional group with no treatment, muscle of the right thigh was harvested at 2 hours after inoculation for the basal CFU determination. The removed muscle tissues were then homogenized in 3-4 mL of PBS, pH 7.4 with a ceramic mortar. Homogenates of 0.1 mL were used for serial 10-fold dilutions and plated on Mueller Hinton broth in 1.5% Bacto agar for CFU determination.

The test system of series [5] is Staphylococcus aureus methicillin resistant ATCC 33591. The series can be described thus: Mouse bacteraemia model, second experiment, IV dosing. Particulars: for number of deaths: 7 days, groups of 6; for survival of mice after 7 days: 1, 3, 5 and 10 mg/kg IV. The series is classed as in vivo, mice. The method, then: In a second experiment Groups of 6 male CD-1 (Crl.) derived mice weighing 24±2 g were used. Mice were inoculated intraperitoneally (IP) with an LD90-100 of Staphylococcus aureus methicillin resistant ATCC 33591 (1.35×10^8 CFU/mouse) in 0.5 mL of BHI broth containing 5% mucin. Example 1 was dissolved in 5% dextrose/1.5 mM potassium phosphate, pH 5.0 and doses of 1, 3, 5 and 10 mg/Kg were administered intravenously (IV) to test animals at 1 and 13 hour(s) after bacteria challenge. The dosing volume was 5 mL/Kg. Mortality was recorded once daily for 7 days.

A short description of series [6]: Laser beam light scattering through cuvette (FIG. 1). The class given is physicochemical. Particulars: naked eye. The source says:
FIG. 1 is a series of photographs of two control formulations (glucose and vancomycin) and a formulation of Example 1, after a laser beam has been shone through a cuvette containing the same. […] In each case the presence or absence of the beam in the samples is clearly visible to the naked eye.
The colloid formulation according to the present invention is distinguished from a solution by the fact that a polarised beam of light, such as from laser, shone through the formulation, for example held in a 1 cm cuvette, causes the formulation to scatter light visible to the naked eye therefrom, for example in the form of a beam. Whilst not wishing to be bound by theory, this luminous path may be known as a Tyndall beam or Rayleigh scatter, both of which are a result of the scattering of the light by the particles in the colloid.

In series [1], `CC[C@H](C)[C@@H]1NC(=O)[C@@H]2NC(=O)[C@H](CC(C)C)NC(=O)[C@H](NC(=O)[C@@H]3CSC[C@@H](N)C(=O)N[C@@H](CO)C(=O)NCC(=O)N[C@@H](Cc4c[nH]c5ccccc45)C(=O)N[C@@H](C(C)C)C(=O)N3)[C@H](C)SC[C@H](NC(=O)[C@H](CCC(=O)O)NC1=O)C(=O)NCC(=O)N[C@H]1C(=O)N[C@@H](CC(C)C)C(=O)N[C@@H](C(C)C)C(=O)N[C@@H](CS[C@H]2C)C(=O)N[C@@H](C)C(=O)N[C@H](C(=O)NCc2cc(Cl)cc(Cl)c2)CS[C@H]1C` [Compound 1, Deoxyactagardine B (3,5-dichlorobenzylamine)monocarboxamide] showed a half-life of around 2 h.

As to `CN[C@H](CC(C)C)C(=O)N[C@H]1C(=O)N[C@@H](CC(N)=O)C(=O)N[C@H]2C(=O)N[C@H]3C(=O)N[C@H](C(=O)N[C@H](C(=O)O)c4cc(O)cc(O)c4-c4cc3ccc4O)[C@H](O)c3ccc(c(Cl)c3)Oc3cc2cc(c3O[C@@H]2O[C@H](CO)[C@@H](O)[C@H](O)[C@H]2O[C@H]2C[C@](C)(N)[C@H](O)[C@H](C)O2)Oc2ccc(cc2Cl)[C@H]1O` [vancomycin, reference compound], the “reductions of CFU/g” value in series [2] (30 mg/kg and above, x2 IV, thigh at 26 h) is above 100 fold. Further, the antimicrobial effect result in series [2] is given as “significant antimicrobial effect”. In addition, the “reduction of CFU/g, highest attained” value in series [2] (doses 5-40 mg/Kg x2 IV, thigh at 26 h) is listed as ≤ 1,000 fold. For the same compound, the “antimicrobial effect against S. aureus (MRSA) in mice” value in series [3] (3, 5, 10 and 20 mg/Kg x3, SC) is listed as “significant antimicrobial effect”. Also, the ED50 in series [3] (Staphylococcus aureus, ATCC33591, SC at 0, 2 and 24 h after challenge, mortality over 7 days, nonlinear regression, read-out: estimated ED50) was 3 mg/kg. Further, in series [4], the “bacterial counts in the thigh tissue (FIG. 3)” value is recorded as “dose dependent reduction in the bacterial counts”. For the same compound, the number of deaths is on record as 5 in series [5] (1 mg/kg IV at 1 and 13 h); 3 in series [5] (3 mg/kg IV at 1 and 13 h); 1 in series [5] (5 mg/kg IV at 1 and 13 h); 0 in series [5] (10 mg/kg IV at 1 and 13 h). Besides, the “survival of mice after 7 days” value in series [5] is “dose-dependent increase in survival”. Also, the “visibility of laser beam through formulation (light scattering)” value in series [6] is recorded as “the beam is not visible”.

For “Deoxyactagardine B (3,5-dichlorobenzylamine)monocarboxamide [Example 1]”, the “reduction in CFU/g” value in series [2] (10 mg/kg and above, x2 IV, thigh at 26 h) was above 1.000 fold. Besides, the antimicrobial effect result in series [2] was “significant antimicrobial effect”. In series [3] (3 mg/Kg, SC), this compound displayed a survival rate of 100%. The “antimicrobial effect against S. aureus (MRSA) in mice” value in series [3] (3, 5, 10 and 20 mg/Kg x3, SC) is recorded as “significant antimicrobial effect”. For the same compound, the “increase in survival rate” value in series [3] (3, 5, 10 and 20 mg/Kg x3, SC) is “at least 50%”. Besides, in series [3] (SC at 0, 2 and 24 h after challenge, mortality over 7 days, nonlinear regression), the “estimated ED50” value was 1.07 mg/kg. For the same compound, the “bacterial counts in the thigh tissue (FIG. 3)” value in series [4] was “dose dependent reduction in the bacterial counts”. Besides, the number of deaths in series [5] (1 mg/kg IV at 1 and 13 h) worked out at 5; in series [5] (3 mg/kg IV at 1 and 13 h) it was 4; in series [5] (5 mg/kg IV at 1 and 13 h), 1; in series [5] (10 mg/kg IV at 1 and 13 h), 1. In series [5], the “survival of mice after 7 days” value was “dose-dependent increase in survival”. In series [6], the “visibility of laser beam through formulation (light scattering)” value is “the beam is visible”.

A word on the half-life: it is the time in which the quantity being followed falls by half. Low readings indicate rapid decline, high ones slow decline. By ED50 is commonly meant the dose at which the effect has come halfway, by size or by number of responders.
